Data from patent US20040014946A1, “Protein interaction method and composition” (priority 2002, published 2004).

Tested on: AbI Protein Tyrosine Kinase
Experiment: On-chip phosphorylation inhibition screening assay (biofunction chip, MALDI MS)
Type: biochemical
Conditions: 250 nM substrate, 23° C.
Protocol: FIG. 8 illustrates a biofunction chip with enzymatic functions. The reaction components consisted of 0.4U/well of AbI at pH 7.5, 0.1 mM ATP, and 400 nM substrate. 4 μl were added per well, and the reaction was incubated at 23° C. for 90 minutes. On-chip phosphorylation in rabbit reticulocyte extract with various substrate concentrations (0, 10, 30, 100, and 300 nM) is shown in FIG. 10. Reproducibility of the spectra in the same scale and in different scales normalized to the phosphorylated peaks are shown in FIG. 13. The percent phosphorylation is determined over time for 1 Unit of substrate per well versus 0.12 Unit substrate per well.
Screening assays for ATP analogs or substrate analogs capable of inhibiting phosphorylation were also tested. […] 250 nM substrate, 5 μM ATP, 20 U/well AbI TK, and 0, 4, 8, 12, 16, and 20 μM ATTP were incubated at 23° C. for 60 minutes. […] 250 nM substrate, 5 μM ATP, 20 U/well AbI TK, and 0, 5, 10, 15 and 40 μM Genistein were incubated at 23° C. for 60 minutes. […] 250 nM substrate, 100 μM ATP, 0.4 Units/well AbI TK, and 0, 1, 2, 4, 8, and 12 μM Erbstain were incubated at 23° C. for 60 minutes.
The components of biofunction chips are useful for kinase studies, histone acetylation, DNA methylation and protease studies. […]

inhibition of phosphorylation (100 μM ATP, 0.4 Units/well AbI TK, 0, 1, 2, 4, 8 and 12 μM Erbstain, 60 minutes (FIG. 16))	inhibition of phosphorylation (5 μM ATP, 20 U/well AbI TK, 0, 5, 10, 15 and 40 μM Genistein, 60 minutes (FIG. 15))	SMILES
inhibition of phosphorylation		O=CN/C=C/c1cc(O)ccc1O [Erbstain]
	inhibition of phosphorylation	O=c1c(-c2ccc(O)cc2)coc2cc(O)cc(O)c12 [Genistein]
